# Results reported in patent US8772343B2, “Chemical compounds” (Pfizer Limited, priority 2010, dated 2014).
# pIC50: −log10 of the molar value.
# Target: T1, Nav1.7 (or SCN9A) channel (Homo sapiens, UniProt Q15858)
# T1 construct: expressed in transfected cells
# Test: Nav1.7 PatchXpress automated whole-cell electrophysiology in HEK cells expressing hSCN9A
# Format: cell-based
# Settings: estimated IC50 from single point data, PatchXpress assay, held at V1/2 of inactivation, read-out: Nav1.7 EIC50
# Experimental: The ability of the compounds of formula (I) to block the Nav1.7 (or SCN9A) channel were measured using the assay described below.
# Human Embryonic Kidney (HEK) cells were transfected with an hSCN9A construct using lipofectamine reagent (Invitrogen), using standard techniques. Cells stably expressing the hSCN9A constructs were identified by their resistance to G-418 (400 μg/ml). Clones were screened for expression using the whole-cell voltage-clamp technique.
# HEK cells stably transfected with hSCN9A were maintained in DMEM medium supplemented with 10% heat-inactivated fetal bovine serum and 400 μg/ml G-418 in an incubator at 37° C. with a humidified atmosphere of 10% CO2. For HTS, cells were harvested from flasks by trypsinization and replated in an appropriate multi-well plate (typically 96 or 384 wells/plate) such that confluence would be achieved within 24 hours of plating. For electrophysiological studies, cells were removed from the culture flask by brief trypsinization and re-plated at low density onto glass cover slips. Cells were typically used for electrophysiological experiments within 24 to 72 hours after plating.
# Cover slips containing HEK cells expressing hSCN9A were placed in a bath on the stage of an inverted microscope and perfused (approximately 1 ml/minutes) with extracellular solution of the following composition: 138 mM NaCl, 2 mM CaCl2, 5.4 mM KCl, 1 mM MgCl2, 10 mM glucose, and 10 mM HEPES, pH 7.4, with NaOH. […] The osmolarity of the extracellular and intracellular solutions was 300 mOsm/kg and 295 mOsm/kg, respectively. All recordings were made at room temperature (22-24° C.) using AXOPATCH 200B amplifiers and PCLAMP software (Axon Instruments, Burlingame, Calif.).
# hSCN9A currents in HEK cells were measured using the whole-cell configuration of the patch-clamp technique (Hamill et al., 1981). Uncompensated series resistance was typically 2 to 5 mega ohms and >85% series resistance compensation was routinely achieved. As a result, voltage errors were negligible and no correction was applied. Current records were acquired at 20 to 50 KHz and filtered at 5 to 10 KHz.
# HEK cells stably transfected with hSCN9A were viewed under Hoffman contrast optics and placed in front of an array of flow pipes emitting either control or compound-containing extracellular solutions. All compounds were dissolved in dimethyl sulfoxide to make 10 mM stock solutions, which were then diluted into extracellular solution to attain the final concentrations desired. […] The voltage-dependence of inactivation was determined by applying a series of depolarizing prepulses (8 sec long in 10 mV increments) from a negative holding potential. The voltage was then immediately stepped to 0 mV to assess the magnitude of the sodium current. Currents elicited at 0 mV were plotted as a function of prepulse potential to allow estimation of the voltage at which 50% of the channels were inactivated (midpoint of inactivation or V1/2). Compounds were tested for their ability to inhibit hSCN9A sodium channels by activating the channel with a 20 msec voltage step to 0 mV following an 8 second conditioning prepulse to the empirically determined V1/2. Compound effect (% inhibition) was determined by difference in current amplitude before and after application of test compounds. For ease of comparison, “estimated IC-50” (EIC50) values were calculated from single point electrophysiology data by the following equation, (tested concentration, uM)×(100-% inhibition/% inhibition). Inhibition values<20% and >80% were excluded from the calculation.
# Electrophysiological assays were conducted with PatchXpress 7000 hardware and associated software (Molecular Devices Corp). All assay buffers and solutions were identical to those used in conventional whole-cell voltage clamp experiments described above. hSCN9A cells were grown as above to 50%-80% confluency and harvested by trypsinization. […]
# T1 sequence (Q15858 whole entry): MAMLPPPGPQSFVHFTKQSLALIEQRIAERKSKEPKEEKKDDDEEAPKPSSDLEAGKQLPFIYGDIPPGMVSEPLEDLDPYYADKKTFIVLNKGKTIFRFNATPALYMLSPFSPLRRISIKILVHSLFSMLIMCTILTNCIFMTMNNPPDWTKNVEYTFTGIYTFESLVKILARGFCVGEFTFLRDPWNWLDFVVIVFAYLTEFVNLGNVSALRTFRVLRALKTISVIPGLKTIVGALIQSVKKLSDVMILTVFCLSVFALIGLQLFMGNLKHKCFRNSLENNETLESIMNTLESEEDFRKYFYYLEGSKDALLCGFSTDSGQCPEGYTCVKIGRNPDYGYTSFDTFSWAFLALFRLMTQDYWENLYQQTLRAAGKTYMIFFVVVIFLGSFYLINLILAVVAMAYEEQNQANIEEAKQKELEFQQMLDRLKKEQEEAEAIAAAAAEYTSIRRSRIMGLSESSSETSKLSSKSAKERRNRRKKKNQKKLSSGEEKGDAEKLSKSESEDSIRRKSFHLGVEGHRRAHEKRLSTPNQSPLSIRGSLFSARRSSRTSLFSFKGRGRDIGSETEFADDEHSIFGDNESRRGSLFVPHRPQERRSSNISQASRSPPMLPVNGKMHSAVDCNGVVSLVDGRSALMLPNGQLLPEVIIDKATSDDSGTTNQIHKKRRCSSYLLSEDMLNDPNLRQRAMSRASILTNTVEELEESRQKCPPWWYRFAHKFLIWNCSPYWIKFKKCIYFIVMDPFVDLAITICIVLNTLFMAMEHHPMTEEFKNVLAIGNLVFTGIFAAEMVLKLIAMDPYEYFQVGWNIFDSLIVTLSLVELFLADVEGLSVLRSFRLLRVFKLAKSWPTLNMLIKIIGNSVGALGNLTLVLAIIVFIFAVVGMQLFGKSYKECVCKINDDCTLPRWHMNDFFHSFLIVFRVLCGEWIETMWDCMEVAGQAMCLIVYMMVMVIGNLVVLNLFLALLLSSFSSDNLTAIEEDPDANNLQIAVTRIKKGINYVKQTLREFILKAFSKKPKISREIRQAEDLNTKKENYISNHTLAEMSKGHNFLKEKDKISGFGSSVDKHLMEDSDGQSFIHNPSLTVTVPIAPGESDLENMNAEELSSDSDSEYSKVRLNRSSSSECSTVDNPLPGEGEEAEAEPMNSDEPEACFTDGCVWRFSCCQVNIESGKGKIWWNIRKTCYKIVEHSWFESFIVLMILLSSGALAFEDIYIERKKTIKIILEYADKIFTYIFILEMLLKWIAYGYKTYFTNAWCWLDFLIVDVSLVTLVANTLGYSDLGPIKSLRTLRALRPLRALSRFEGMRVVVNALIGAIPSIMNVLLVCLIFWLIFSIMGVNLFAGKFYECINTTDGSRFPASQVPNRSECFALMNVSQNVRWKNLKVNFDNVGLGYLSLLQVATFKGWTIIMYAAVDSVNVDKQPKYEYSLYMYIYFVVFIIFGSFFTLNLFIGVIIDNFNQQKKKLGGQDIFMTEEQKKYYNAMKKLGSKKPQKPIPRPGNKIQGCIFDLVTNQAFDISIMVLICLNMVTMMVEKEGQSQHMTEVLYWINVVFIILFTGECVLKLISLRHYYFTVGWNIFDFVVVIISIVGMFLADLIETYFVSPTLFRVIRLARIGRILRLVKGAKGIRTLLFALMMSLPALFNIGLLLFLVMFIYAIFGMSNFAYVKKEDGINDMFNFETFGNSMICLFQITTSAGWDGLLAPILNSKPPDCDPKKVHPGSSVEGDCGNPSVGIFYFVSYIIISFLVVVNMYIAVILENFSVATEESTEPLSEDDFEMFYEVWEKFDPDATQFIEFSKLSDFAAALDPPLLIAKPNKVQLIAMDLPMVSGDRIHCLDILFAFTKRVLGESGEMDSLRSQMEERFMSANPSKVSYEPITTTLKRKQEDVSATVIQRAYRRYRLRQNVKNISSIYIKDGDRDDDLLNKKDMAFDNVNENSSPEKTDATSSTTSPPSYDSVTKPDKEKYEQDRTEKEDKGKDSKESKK
row,SMILES,pIC50
1,"COCc1ccc(Oc2ccc(C(=O)NS(C)(=O)=O)cc2-c2cccnc2OC)cc1 [Example 62, 4-[4-(methoxymethyl)phenoxy]-3-(2-methoxypyridin-3-yl)-N-(methylsulfonyl)benzamide]",5.92
2,"CCc1ccc(Oc2ccc(C(=O)NS(C)(=O)=O)cc2-c2cccnc2OC)cn1 [Example 63, 4-[(6-ethylpyridin-3-yl)oxy]-3-(2-methoxypyridin-3-yl)-N-(methylsulfonyl)benzamide]",5.41
3,"COc1ncccc1-c1cc(C(=O)NS(C)(=O)=O)ccc1Oc1ccc(Cl)cc1F [Example 64, 4-(4-chloro-2-fluorophenoxy)-3-(2-methoxypyridin-3-yl)-N-(methylsulfonyl)benzamide]",6.27
4,"COc1ccc(Oc2ccc(C(=O)NS(C)(=O)=O)cc2-c2cccnc2OC)cc1 [Example 65, 4-(4-methoxyphenoxy)-3-(2-methoxypyridin-3-yl)-N-(methylsulfonyl)benzamide]",6.19
5,"COc1ncccc1-c1cc(C(=O)NS(C)(=O)=O)ccc1Oc1ccc(Cl)c(F)c1 [Example 66, 4-(4-chloro-3-fluorophenoxy)-3-(2-methoxypyridin-3-yl)-N-(methylsulfonyl)benzamide]",7.01
6,"CCOc1ccccc1Oc1ccc(C(=O)NS(C)(=O)=O)cc1-c1cccnc1OC [Example 67, 4-(2-ethoxyphenoxy)-3-(2-methoxypyridin-3-yl)-N-(methylsulfonyl)benzamide]",5.55
7,"COc1ncccc1-c1cc(C(=O)NS(C)(=O)=O)ccc1Oc1cccc(OC(F)(F)F)c1 [Example 68, 3-(2-methoxypyridin-3-yl)-N-(methylsulfonyl)-4-[3-(trifluoromethoxy)phenoxy]benzamide]",7.08
8,"COc1ncccc1-c1cc(C(=O)NS(C)(=O)=O)ccc1Oc1cc(F)cc(F)c1 [Example 69, 4-(3,5-difluorophenoxy)-3-(2-methoxypyridin-3-yl)-N-(methylsulfonyl)benzamide]",6.36
9,"COc1ccc(Oc2ccc(C(=O)NS(C)(=O)=O)cc2-c2cccnc2OC)cn1 [Example 70, 3-(2-methoxypyridin-3-yl)-4-[(6-methoxypyridin-3-yl)oxy]-N-(methylsulfonyl)benzamide]",5.66
10,"COc1ncccc1-c1cc(C(=O)NS(C)(=O)=O)ccc1Oc1cccc(C#N)c1 [Example 71, 4-(3-cyanophenoxy)-3-(2-methoxypyridin-3-yl)-N-(methylsulfonyl)benzamide]",5.60
11,"COc1ncccc1-c1cc(C(=O)NS(C)(=O)=O)ccc1Oc1cc(F)cc(C(F)(F)F)c1 [Example 72, 4-[3-fluoro-5-(trifluoromethyl)phenoxy]-3-(2-methoxypyridin-3-yl)-N-(methylsulfonyl)benzamide]",7.00
12,"COc1ncccc1-c1cc(C(=O)NS(C)(=O)=O)ccc1Oc1ccc(C)cc1 [Example 73, 3-(2-methoxypyridin-3-yl)-4-(4-methylphenoxy)-N-(methylsulfonyl)benzamide]",6.77
13,"COc1ncccc1-c1cc(C(=O)NS(C)(=O)=O)ccc1Oc1cccc(F)c1F [Example 74, 4-(2,3-difluorophenoxy)-3-(2-methoxypyridin-3-yl)-N-(methylsulfonyl)benzamide]",5.72
14,"COc1ccc(Oc2ccc(C(=O)NS(C)(=O)=O)cc2-c2cccnc2OC)cc1Cl [Example 75, 4-(3-chloro-4-methoxyphenoxy)-3-(2-methoxypyridin-3-yl)-N-(methylsulfonyl)benzamide]",6.51
15,"COc1ncccc1-c1cc(C(=O)NS(C)(=O)=O)ccc1Oc1ccc(Cl)cn1 [Example 76, 4-[(5-chloropyridin-2-yl)oxy]-3-(2-methoxypyridin-3-yl)-N-(methylsulfonyl)benzamide]",< 6.00
16,"CCc1ccc(Oc2ccc(C(=O)NS(C)(=O)=O)cc2-c2cccnc2OC)cc1 [Example 77, 4-(4-ethylphenoxy)-3-(2-methoxypyridin-3-yl)-N-(methylsulfonyl)benzamide]",> 6.00

row,SMILES,pIC50
1,"COc1ncccc1-c1cc(C(=O)NS(C)(=O)=O)ccc1Oc1ccc(F)c(C(F)(F)F)c1 [Example 78, 4-[4-fluoro-3-(trifluoromethyl)phenoxy]-3-(2-methoxypyridin-3-yl)-N-(methylsulfonyl)benzamide]",6.82
2,"COc1ccc(Oc2ccc(C(=O)NS(C)(=O)=O)cc2-c2cccnc2OC)c(F)c1 [Example 79, 4-(2-fluoro-4-methoxyphenoxy)-3-(2-methoxypyridin-3-yl)-N-(methylsulfonyl)benzamide]",5.62
3,"CCc1ccccc1Oc1ccc(C(=O)NS(C)(=O)=O)cc1-c1cccnc1OC [Example 80, 4-(2-ethylphenoxy)-3-(2-methoxypyridin-3-yl)-N-(methylsulfonyl)benzamide]",< 6.00
4,"COc1ncccc1-c1cc(C(=O)NS(C)(=O)=O)ccc1Oc1cccc(C(F)(F)F)c1F [Example 81, 4-[2-fluoro-3-(trifluoromethyl)phenoxy]-3-(2-methoxypyridin-3-yl)-N-(methylsulfonyl)benzamide]",5.96
5,"COc1ncccc1-c1cc(C(=O)NS(C)(=O)=O)ccc1Oc1ccccc1C(F)(F)F [Example 82, 3-(2-methoxypyridin-3-yl)-N-(methylsulfonyl)-4-[2-(trifluoromethyl)phenoxy]benzamide]",< 6.00
6,"CCOc1ccc(Oc2ccc(C(=O)NS(C)(=O)=O)cc2-c2cccnc2OC)cc1 [Example 83, 4-(4-ethoxyphenoxy)-3-(2-methoxypyridin-3-yl)-N-(methylsulfonyl)benzamide]",6.31
7,"CCOc1cccc(Oc2ccc(C(=O)NS(C)(=O)=O)cc2-c2cccnc2OC)c1 [Example 84, 4-(3-ethoxyphenoxy)-3-(2-methoxypyridin-3-yl)-N-(methylsulfonyl)benzamide]",6.31
8,"COc1cccc(Oc2ccc(C(=O)NS(C)(=O)=O)cc2-c2cccnc2OC)c1 [Example 85, 4-(3-methoxyphenoxy)-3-(2-methoxypyridin-3-yl)-N-(methylsulfonyl)benzamide]",6.19
9,"COc1ncccc1-c1cc(C(=O)NS(C)(=O)=O)ccc1Oc1ccc(F)cc1F [Example 86, 4-(2,4-difluorophenoxy)-3-(2-methoxypyridin-3-yl)-N-(methylsulfonyl)benzamide]",5.96
10,"COc1ncccc1-c1cc(C(=O)NS(C)(=O)=O)ccc1Oc1ccc(C(F)(F)F)cc1 [Example 87, 3-(2-methoxypyridin-3-yl)-N-(methylsulfonyl)-4-[4-(trifluoromethyl)phenoxy]benzamide]",7.07
11,"COc1ncccc1-c1cc(C(=O)NS(C)(=O)=O)ccc1Oc1ccc(C#N)c(Cl)c1 [Example 88, 4-(3-chloro-4-cyanophenoxy)-3-(2-methoxypyridin-3-yl)-N-(methylsulfonyl)benzamide]",5.60
12,"CCc1cccc(Oc2ccc(C(=O)NS(C)(=O)=O)cc2-c2cccnc2OC)c1 [Example 89, 4-(3-ethylphenoxy)-3-(2-methoxypyridin-3-yl)-N-(methylsulfonyl)benzamide]",6.80
13,"COc1ncccc1-c1cc(C(=O)NS(C)(=O)=O)ccc1Oc1cncc(Cl)c1 [Example 90, 4-[(5-chloropyridin-3-yl)oxy]-3-(2-methoxypyridin-3-yl)-N-(methylsulfonyl)benzamide]",5.85
14,"COc1ncccc1-c1cc(C(=O)NS(C)(=O)=O)ccc1Oc1ccc(F)cc1 [Example 91, 4-(4-fluorophenoxy)-3-(2-methoxypyridin-3-yl)-N-(methylsulfonyl)benzamide]",6.17
15,"COc1ncccc1-c1cc(C(=O)NS(C)(=O)=O)ccc1Oc1ccc(C(C)C)cc1 [Example 92, 4-(4-isopropylphenoxy)-3-(2-methoxypyridin-3-yl)-N-(methylsulfonyl)benzamide]",7.42
